Reference: PMC7673371, “Real-Time Parallel Artificial Membrane Permeability Assay Based on Supramolecular Fluorescent Artificial Receptors” (Frontiers in Chemistry, 2020)
Entries after “also recorded” stand apart in the source; their conditions may differ.

How the values were obtained:
[1] = RT-PAMPA with MDAP∙CB8 fluorescent receptor and Avanti lipid
Protocol: Analyte solutions were prepared at 1 mmol/L in Millipore water or cosolvents as indicated. The MDAP∙CB8 reporter pair solution contained 5 μmol/L of MDAP and 6 μmol/L of CB8 that were dissolved in Millipore water. Two lipid solutions were used, including the commercial Avanti PAMPA lipid blend I and the self-prepared 2% DOPC in dodecane. To proceed with the assay, 5 μL of the lipid solution was pipetted to the microporous filter and allowed to impregnate evenly; 300 μL of the analyte solution was transferred to the lower donor well, and 100 μL of the reporter pair solution was transferred to the upper acceptor well. The acceptor plate was combined with the donor plate after the solutions had been loaded to define the start point of the assay. Fluorescence readings were taken on a Jasco FP-8500 fluorimeter equipped with a microplate reader with an excitation wavelength at 418 nm and monitored at an emission wavelength of 449 nm.
RT-PAMPA and fluorescence titration experiments were conducted on a Jasco FP-8500 fluorimeter with an attached microplate reader. For RT-PAMPA, the analytes were prepared at 1 mmol/l, while the FARs, including MDAP•CB8 and berberine•cucurbit[7]uril (BE•CB7), were prepared at 5 μmol/l.
In the first step, 5 μl of the lipid solution (Avanti PAMPA Blend I or 2% DOPC) was loaded on the microporous bottom of the acceptor well and allowed to disperse evenly. Subsequently, 100 μl of the FAR solution was loaded in the acceptor well, and 300 μl of the analyte solution was loaded into the donor well. Immediately after the solutions were loaded, the two plates were combined with the acceptor plate on top and the donor plate at the bottom. Fluorescence intensity was recorded at 449 nm with an excitation wavelength of 418 nm for the MDAP•CB8 experiments and recorded at 500 nm with an excitation wavelength of 342 nm for the BE•CB7 experiments. For the titration experiments, 2.5 ml of the 1 μmol/l MDAP•CB8 solution was placed into a 1-cm length quartz cuvette, followed by gradual addition of the indole solution. The solution was excited at 418 nm and the fluorescence spectra were recorded upon each addition of the indole solution. The fluoresc ence decrease at 449 nm was fitted with a 1:l binding model in order to obtain the binding constants of the MDAP•CB8•indole […]
2 Blank control experiments […]
5 Calculation of permeability
The effective permeability (Pe) of an analyte was calculated with the below equation (Wohnsland and […]
logP = log {−C × ln (1 − [analyte]acceptor )}
Based on the principle of the RT-PAMPA, the concentration of analyte in the acceptor well ([analyte]acceptor) and the concentration at equilibrium ([analyte]equilibrium) were obtained with the below equations, with the knowledge of the fluorescence intensity of the acceptor well and the binding constant of the ternary MDAP•CB8•analyte complex. It should be noted that the retention of analyte in the lipid layer was not taken into account.
[analyte]acceptor = [analyte]complex + [analyte]free
= IA − IG × [G ] + IA − IG […]
[analyte] = A G × [G ] + IGA − IG […]
IA: fluorescence intensity of the acceptor well at the chosen time point; IG: initial fluorescence intensity of the acceptor well;
IGA: fluorescence intensity of the ternary complex;
[G0]: initial concentration of FAR in the acceptor well;
[A0]: initial concentration of analyte in the donor well;
VA: volume of the solution in the acceptor well;
VD: volume of the solution in the donor well;
Ka: binding constant of the ternary MDAP•CB8•analyte complex.

[2] = RT-PAMPA with BE•CB7 as FAR, Avanti PAMPA lipid layer; type: in vitro ADME; settings: berberine∙cucurbit[7]uril reporter pair, analyte in water
[3] = RT-PAMPA with MDAP∙CB8 fluorescent receptor and 2% DOPC lipid; type: in vitro ADME; settings: RT-PAMPA conditions, 2% DOPC in dodecane
Protocol: with an attached microplate reader.
Subsequently, 100 μl of the
Fluorescence intensity was recorded at 449 nm
For the titration experiments,
gradual addition of the indole solution.
were recorded upon each addition of the indole solution. The fluoresc ence decrease at 449 nm was
2 Blank control experiments

[4] = not told; cited from earlier work
[5] = 1 mmol/L analyte in donor well, MDAP∙CB8 in acceptor well, Avanti lipid, compared with absence of analyte
[6] = RT-PAMPA, fast = sharp fluorescence drop in initial several minutes, slow = response on time scale of several hours

Q: With `Cc1c(OCC(F)(F)F)ccnc1C[S+]([O-])c1nc2ccccc2[nH]1` (stereo not shown) [lansoprazole] as the compound, how does the “fluorescence response indicative of analyte permeation through the lipid layer” value [1, 5] read?
A: significant fluorescence responses

Q: And the “permeation characteristics (fast or slow) from the permeation curves” value (from here on “permeation characteristics”) [1, 6]?
A: slowly permeating

Q: With `c1ccc2[nH]ccc2c1` [indole] as the compound, how does the “fluorescence response indicative of analyte permeation through the lipid layer” value [1, 5] read?
A: significant fluorescence responses

Q: What about the “permeation characteristics” value [1, 6] of the same compound?
A: Fast permeation

Q: What about the “log Pe” value ([1]; indole 0.010 mmol/l, time 0.15 h) of the same compound?
A: –4.55

Q: And the “log Pe” value ([1]; indole 0.010 mmol/l, time 0.30 h)?
A: –4.67

Q: What about the “log Pe” value ([1]; indole 0.010 mmol/l, time 0.45 h) of the same compound?
A: –4.59

Q: What about the “log Pe” value ([1]; indole 0.010 mmol/l, time 0.58 h) of the same compound?
A: –4.52

Q: What about the “log Pe” value ([1]; indole 0.010 mmol/l, time 0.73 h) of the same compound?
A: –4.53

Q: What about the “log Pe” value ([1]; indole 0.010 mmol/l, time 0.87 h) of the same compound?
A: –4.52

Q: What about the “log Pe” value ([1]; indole 0.010 mmol/l, time 1.43 h) of the same compound?
A: –4.55

Q: And the “log Pe” value ([1]; indole 0.010 mmol/l, time 1.85 h)?
A: –4.59

Q: And the “log Pe” value ([1]; indole 0.1 mmol/l, time 0.15 h)?
A: –4.70

Q: What about the “log Pe” value ([1]; indole 0.1 mmol/l, time 0.30 h) of the same compound?
A: –4.72

Q: What about the “log Pe” value ([1]; indole 0.1 mmol/l, time 0.45 h) of the same compound?
A: –4.74

Q: And the “log Pe” value ([1]; indole 0.1 mmol/l, time 0.58 h)?
A: –4.73

Q: And the “log Pe” value ([1]; indole 0.1 mmol/l, time 0.73 h)?
A: –4.74

Q: What about the “log Pe” value ([1]; indole 0.1 mmol/l, time 0.87 h) of the same compound?
A: –4.72

Q: And the “log Pe” value ([1]; indole 0.1 mmol/l, time 1.43 h)?
A: –4.81

Q: And the “log Pe” value ([1]; indole 0.1 mmol/l, time 1.85 h)?
A: –4.87

Q: What about the “log Pe” value ([1]; indole 1.0 mmol/l, time 0.15 h) of the same compound?
A: –5.15

Q: What about the “log Pe” value ([1]; indole 1.0 mmol/l, time 0.30 h) of the same compound?
A: –5.09

Q: And the “log Pe” value ([1]; indole 1.0 mmol/l, time 0.45 h)?
A: –5.17

Q: What about the “log Pe” value ([1]; indole 1.0 mmol/l, time 0.58 h) of the same compound?
A: –5.21

Q: And the “log Pe” value ([1]; indole 1.0 mmol/l, time 0.73 h)?
A: –5.28

Q: And the “log Pe” value ([1]; indole 1.0 mmol/l, time 0.87 h)?
A: –5.32

Q: What about the “log Pe” value ([1]; indole 1.0 mmol/l, time 1.43 h) of the same compound?
A: –5.49

Q: What about the “log Pe” value ([1]; indole 1.0 mmol/l, time 1.85 h) of the same compound?
A: –5.59

Q: Which “fluorescence response indicative of analyte permeation through the lipid layer” value [1, 5] does the source give for `CCC(=O)Nc1ccc(Cl)c(Cl)c1` [propanil] here?
A: significant fluorescence responses

Q: And the “permeation characteristics” value [1, 6]?
A: Fast permeation

Q: With `OC12CC3CC(CC(C3)C1)C2` [1-adamantanol] as the compound, how does the “fluorescence response indicative of effective permeation” value [2] read?
A: strong fluorescence response

Q: Which results are given for `c1ccc2[nH]c(-c3cscn3)nc2c1` [thiabendazole]?
A: influence of organic cosolvent in donor well on permeation curves ([1]; 0.1 mmol/L in 2 and 20% ethanol, initial hour): overlapped; fluorescence response indicative of analyte permeation through the lipid layer [1, 5]: significant fluorescence responses; permeation characteristics (fast or slow) from the permeation curves [1, 6]: Fast permeation

Q: With `NCCc1c[nH]c2ccc(O)cc12` [serotonin] as the compound, how does the “fluorescence response indicative of analyte permeation through the lipid layer” value [1, 5] read?
A: no significant fluorescence response

Q: What does the source list for `O=c1ccc2ccccc2o1` [coumarin]?
A: fluorescence response indicative of analyte permeation through the lipid layer [1, 5]: significant fluorescence responses; permeation characteristics (fast or slow) from the permeation curves [1, 6]: Fast permeation

Q: For `CN(C)CCc1c[nH]c2ccc(C[C@H]3COC(=O)N3)cc12` [zolmitriptan], which “fluorescence response indicative of analyte permeation through the lipid layer” value [1, 5] is on record?
A: no significant fluorescence response

Q: With `CN(C)CCC=C1c2ccccc2COc2ccccc21` [doxepin] as the compound, how does the “fluorescence response indicative of analyte permeation through the lipid layer” value [1, 5] read?
A: no significant fluorescence response

Q: With `N[C@@H](Cc1ccccc1)C(=O)O` [L-Phenylalanine] as the compound, how does the “fluorescence response indicative of analyte permeation through the lipid layer” value [1, 5] read?
A: no significant fluorescence response

Q: With `O=c1ccc2ccc(O)cc2o1` [umbelliferone] as the compound, how does the “permeation through the 2% DOPC lipid” value [3] read?
A: did not permeate to a significant extent

Q: And the “fluorescence response indicative of analyte permeation through the lipid layer” value [1, 5]?
A: significant fluorescence responses; also recorded: appreciable permeability

Q: What about the “permeation characteristics” value [1, 6] of the same compound?
A: slowly permeating

Q: For `NC(=O)[C@@H](N)Cc1c[nH]c2ccccc12` [L-tryptophanamide], which “permeability coefficient (logPe)” value [4] is on record?
A: −5.56

Q: What about the “fluorescence response indicative of analyte permeation through the lipid layer” value ([1]; PAMPA) of the same compound?
A: significant fluorescence responses

Q: And the “permeation characteristics” value ([1]; PAMPA)?
A: slowly permeating
